Laboratory results published in patent US8563267B2, “Lycogen extract, composition thereof and method for the treatment using the same” (Asia-Pacific Beiotech Developing, Inc., priority 2010, dated 2013).

What was measured:
type I procollagen = assay: Type I procollagen level in Hs68 human fibroblasts (Western blotting); assay type: cell-based; conditions: Hs68, without UV treatment, 24 hr; lycopene 0.1, 0.5, 10 μM; lycogen extract 1, 5, 10 μM
Method: The Hs68 human fibroblasts were treated with 20 J/cm^2 of UVA and then with 10, 25 and 50 μM of lycogen extract for 24 hr. The type I procollagen level was analyzed by using Western blotting analysis.
In addition, under condition without UV treatment, the Hs68 human fibroblasts were treated with 0.1, 0.5 and 10 μM lycopene (extracted from tomato) or 1, 5, 10 μM lycogen extract (extracted from photosynthetic bacteria of the present invention) for 24 hr. The type I procollagen level was analyzed by using Western blotting.

[1] = test tube studies; cited from earlier work
human lymphocytes = conditions: protection of human lymphocytes from free radical NO2; cited from earlier work

## CC(C)=CCC/C(C)=C/C=C/C(C)=C/C=C/C(C)=C/C=C/C=C(C)/C=C/C=C(C)/C=C/C=C(\C)CCC=C(C)C [lycopene]
Type I procollagen
  promotion of collagen proliferation (type I procollagen level): unable to promote collagen proliferation
[1]
  efficiency of singlet-oxygen quenching action relative to vitamin E: 100 times
Human lymphocytes
  NO2 resistant effect relative to β-carotene: at least two times
